Our source for the cytotoxicity values is ChEMBL document CHEMBL3507680, “University of Dundee, Gates Library screen for HepG2 cell viability”.

The nature of this data set: Human HepG2 cell viability assay in 384 well format. The format is toxicity, cell-based. Details: dose 125 nL, time 70.5 hour; concentration not given beside the values. The note with it: HepG2 cells, read-out: Inhibition.
Regarding `CN1CCc2nc(C3CCCN(C(=O)CC4CCCCC4)C3)ncc2C1` (stereo not drawn), the cytotoxicity at 70.5 h amounted to 0.186%.

For the compound `O=C(NCCc1c[nH]cn1)c1ccc2c(c1)C(=O)N(C1CCCC1)C2=O`, the cytotoxicity at 70.5 h is -1.68%. On to `CN(C)C[C@@H]1C[C@@H]2CN(C(=O)c3ccoc3)CC[C@@H]2N1CC1CC1`, for which the cytotoxicity at 70.5 h came to 24%. For the compound `Cc1cc(C(=O)N2CCc3ncnc(-c4cnn(C)c4)c3CC2)c(C)o1`, the cytotoxicity at 70.5 h was -7.85%. For the compound `O=C1CN(c2ccc(CNC(=O)c3cccnc3O)cc2F)CCN1`, the cytotoxicity at 70.5 h is -2.79%.

As for `Cc1nc(O)c2nnn(C[C@H]3CCCN3C(=O)c3cccc(F)c3)c2n1`, the cytotoxicity at 70.5 h was -7.83%.

As to `CC(C)(C)OC(=O)N1CSC[C@@H]1C(=O)NCc1ccncc1`, the cytotoxicity at 70.5 h was -2.13%.

As for `O=C1NCC(C(=O)Nc2ncc(Cc3ccccc3)s2)N1` (stereo not drawn), the cytotoxicity at 70.5 h was found to be 44.7%. In the case of `O=C(c1ccccc1)N1CCOC2CNCC[C@H]21` (stereo partly drawn), the cytotoxicity at 70.5 h is -7.04%.

Consider `CN(C)c1ccc(CCNC(=O)NCc2ccc(N(C)C)nc2)cc1`, for which the cytotoxicity at 70.5 h was -3.36%. As for `CC(C)Cc1cc(NC(=O)c2ccccn2)n(C)n1`, the cytotoxicity at 70.5 h was -10.2%. Take `Cc1cccc(O[C@H]2COCCN(C3CCOCC3)C2)n1`: the cytotoxicity at 70.5 h was -9.61%. `CNC(=O)[C@@H]1CC[C@@H]2[C@@H](CCN2Cc2cn(C)c3ccccc23)O1`: the cytotoxicity at 70.5 h is -3.34%.

Turning to `CC(Cn1cncn1)NCc1ccc2nonc2c1` (stereo not drawn), the cytotoxicity at 70.5 h is -5.99%. `O=C1CC(c2ccncc2)C2(CCN(C(=O)c3cccc(F)c3)CC2)N1` (stereo not drawn): the cytotoxicity at 70.5 h is -9.17%. For `COC1(CNC(=O)c2ccoc2)CCSC1` (stereo not drawn), the cytotoxicity at 70.5 h is -11%.

With `CCCN(Cc1cnn(C)c1)CC1CCCN(S(C)(=O)=O)C1` (stereo not drawn), the cytotoxicity at 70.5 h came out at 23.4%.

Regarding `CC(=O)NCCC(=O)NC(C)c1sc(-c2ccccc2F)nc1C` (stereo not drawn), the cytotoxicity at 70.5 h was -5.17%. `FC(F)Oc1ccc(CNCc2cc(Br)c3c(c2)OCO3)cc1`: the cytotoxicity at 70.5 h is -6.89%. In the case of `O[C@H]1CCN(CCCOc2ccccc2F)C[C@@]12CCCO2`, the cytotoxicity at 70.5 h was determined as 18.1%. `CC[C@H]1CN2CC[C@H]1C[C@@H]2CNC(=O)NC1CCCCC1`: the cytotoxicity at 70.5 h was 4.29%. On to `COc1ccc(C(C)(C)C(=O)NCc2n[nH]c(=O)[nH]2)cc1`, for which the cytotoxicity at 70.5 h was -1.62%. For the compound `Cc1nc2ccc(C(=O)N(CCC#N)CCC#N)cc2nc1C`, the cytotoxicity at 70.5 h was 11.6%. In the case of `CCc1ccccc1OC1CN(C(=O)c2ccsc2)C1`, the cytotoxicity at 70.5 h was -3.52%. `OC1(CNCCc2csc(-c3ccncc3)n2)CCCNC1` (stereo not drawn): the cytotoxicity at 70.5 h was -5.37%. In the case of `CC(NC(=O)NCCNc1cccc(F)c1C#N)c1cccs1` (stereo not drawn) it was -4.54%; in that of `N#CCCN(CC1CC1)S(=O)(=O)c1cccc(Cl)c1`, -3.31%; in that of `Fc1cccc(CN2CCC(c3noc(-c4ccccn4)n3)CC2)c1F`, -0.639%.

As to `O=S(=O)(NCc1ccccc1)N(Cc1ccccn1)CC1CCCO1` (stereo not drawn), the cytotoxicity at 70.5 h is -2.95%. On to `Cn1ccnc1CNC(=O)c1cnc(C2CCNCC2)cn1`, for which the cytotoxicity at 70.5 h was determined as 28.1%. To `O=C(NCCCc1ccncc1)C1CCCN(Cc2ccco2)C1` (stereo not drawn) belongs 9.58%. Consider `COCC(O)CNC(=O)c1coc(COc2ccc3sc(C)nc3c2)n1` (stereo not drawn), for which the cytotoxicity at 70.5 h is -9.49%. For `Cc1cc(C(=O)N2CCCC(C(=O)c3nccn3C)C2)c(=O)[nH]c1C` (stereo not drawn), the cytotoxicity at 70.5 h is 7.95%. Turning to `CCc1nc(CCNC(=O)NC2CC2)sc1C`, the cytotoxicity at 70.5 h amounted to 5.49%.

In the case of `Cn1cc(CN2CCO[C@H]3C(Cn4cccn4)CC[C@@H]32)cn1` (stereo partly drawn), the cytotoxicity at 70.5 h stood at 2.67%. Turning to `Cc1cc(C)n(CC(C)CNC(=O)NCc2c(C)cc(C)[nH]c2=O)n1` (stereo not drawn), the cytotoxicity at 70.5 h is -10.1%. In the case of `Cn1ncc(C(=O)OCC2CCN(c3ccccc3)C2)c1C(F)F` (stereo not drawn), the cytotoxicity at 70.5 h is -3.5%. Consider `CC(CO)CN(Cc1ccccc1)Cc1cnc2ccccc2n1` (stereo not drawn), for which the cytotoxicity at 70.5 h was -8.82%.

Consider `COc1nc2c(cc1C(=O)N1CCCOC(Cn3cccn3)C1)CCC2` (stereo not drawn), for which the cytotoxicity at 70.5 h is -2.14%.

Turning to `Cc1nn(C)cc1CN1CCC(C2Nc3ccccc3S(=O)(=O)N2)CC1` (stereo not drawn), the cytotoxicity at 70.5 h was -12.8%. For the compound `CCc1ccc(CN2CCc3ncnc(N4CCOCC4)c3CC2)o1`, the cytotoxicity at 70.5 h is -1.4%. As for `CC(C)c1cc(C(=O)N2CCN(Cc3ccc(C#N)cc3)CC2)n[nH]1`, the cytotoxicity at 70.5 h was -4.18%. Take `CN(CC(=O)NC(c1ccc(F)cc1)C(F)(F)F)S(C)(=O)=O` (stereo not drawn): the cytotoxicity at 70.5 h is -0.794%. Consider `O=C1CC(CNc2cncc(Cl)n2)c2ccccc2N1` (stereo not drawn), for which the cytotoxicity at 70.5 h was -2.03%.

For the compound `CCOC(=O)NC1CCCN(Cc2ccc(-n3cncn3)c(C)c2)C1` (stereo not drawn), the cytotoxicity at 70.5 h is -0.7%.

As for `Cn1nccc1-c1nnn2c1COCC(CNCC1CC1)C2` (stereo not drawn), the cytotoxicity at 70.5 h is -2.84%. Take `CCOc1ncccc1NC(=O)c1sccc1C`: the cytotoxicity at 70.5 h was -7.66%. In the case of `CS(=O)(=O)Nc1ccn(Cc2cccc(F)c2)n1`, the cytotoxicity at 70.5 h is -6.83%. Consider `OC(COCc1ccccc1)CN1CCC(Cn2cccn2)CC1` (stereo not drawn), for which the cytotoxicity at 70.5 h is -22.4%. As to `Cc1ccoc1C(=O)N1CCCC(c2cc(C(F)(F)F)[nH]n2)C1` (stereo not drawn), the cytotoxicity at 70.5 h was -8.09%. With `CN1CC[C@]2(CN(CC3CCOCC3)C[C@H]2c2ccccc2)C1=O`, the cytotoxicity at 70.5 h is -7.31%.

As for `Cc1n[nH]c(C)c1CCCN(C)Cc1c[nH]nc1-c1ccc(F)cc1`, the cytotoxicity at 70.5 h was -4.19%. With `O=C(COC1CCCC1)NCc1ccc(O)c(F)c1`, the cytotoxicity at 70.5 h was -3.82%.

In the case of `CC1CCN(CC2CCN(C(=O)c3c[nH]c4ncccc34)CC2)CC1`, the cytotoxicity at 70.5 h is -19.4%. In the case of `CCc1ccc(CN2C[C@@H]3COC[C@H](NS(C)(=O)=O)[C@@H]3C2)o1`, the cytotoxicity at 70.5 h is -18.1%. In the case of `CC(C)Nc1nc2c(cc1C(=O)NCC1CC1)CCN(CC1CC1)CC2`, the cytotoxicity at 70.5 h was determined as 25.7%. For `CCc1nc(C)c(C(=O)N2CCCN(Cc3cnn(C)c3)CC2)s1`, the cytotoxicity at 70.5 h was -9%. Regarding `O=C1NC(C(=O)NCc2cccnc2Oc2ccccc2F)CO1` (stereo not drawn), the cytotoxicity at 70.5 h was -18.5%.

As for `CNC(=O)[C@@]12CCC3(CCN(S(C)(=O)=O)CC3)[C@@H]1CN(C(C)=O)C2`, the cytotoxicity at 70.5 h is -0.353%. With `CCc1noc(CN(CC)C(=O)C2CC(=O)N(Cc3ccncc3)C2)n1` (stereo not drawn), the cytotoxicity at 70.5 h came to 35.2%. Consider `O=C(NC1CC(F)(F)C1)[C@]12COC[C@H]1CN(Cc1cccnc1)C2`, for which the cytotoxicity at 70.5 h was -10.6%. As to `O=C(NCCNc1ccccn1)NC1CCCC1`, the cytotoxicity at 70.5 h is -4.33%. For `CCCN1CC2(CCN(c3cc(C4CC4)ncn3)CC2)CC1C(=O)O` (stereo not drawn), the cytotoxicity at 70.5 h is -4.45%. As for `O=C1CN(c2ccc(CNC(=O)c3ccc[nH]3)cc2F)CCN1`, the cytotoxicity at 70.5 h is 1.47%. As for `CCN1CCN(S(=O)(=O)c2cnc(NC(C)=O)s2)CC1`, the cytotoxicity at 70.5 h was determined as 17.3%. In the case of `O=C(Cc1cccnc1)N1C[C@H]2CC[C@@H]1CN(Cc1ccc(F)cc1)C2`, the cytotoxicity at 70.5 h came to 9.62%. Consider `N#Cc1cccc(OCCCN2CCN(C(=O)c3ccoc3)CC2)c1`, for which the cytotoxicity at 70.5 h was -10%. To `COCCNC(=O)C1CN(Cc2nccs2)Cc2ccnn2C1` (stereo not drawn) belongs -6.42%.

Take `COCCCNC(=O)C1(NC(=O)c2ccc3[nH]ncc3c2)CCCC1`: the cytotoxicity at 70.5 h was -15.2%.

As for `COc1cc(CCO)c(OC)c2c1OCO2`, the cytotoxicity at 70.5 h was -7.84%. In the case of `CN(CCCNC(=O)c1cccc(OCC(N)=O)c1)CC(F)(F)F`, the cytotoxicity at 70.5 h stood at 0.403%. For the compound `CN1CCN(Cc2n[nH]c(=O)n2CC2CCCCC2)CC1`, the cytotoxicity at 70.5 h was -6.17%. For `c1ccc2c(N3CCCC3Cn3cccn3)ncnc2c1` (stereo not drawn), the cytotoxicity at 70.5 h was 4.1%. Turning to `CC(C)N1CCO[C@H]2CN(C(=O)Cc3cccs3)C[C@H]21`, the cytotoxicity at 70.5 h was -3.28%. On to `COc1cccc(COC(C)C(=O)NCc2nnc3n2CCC3)c1` (stereo not drawn), for which the cytotoxicity at 70.5 h was -1.81%.

In the case of `CCOC(=O)C1CCN(C(=O)c2cnn(-c3ccccc3F)c2N)CC1`, the cytotoxicity at 70.5 h is -4.94%. In the case of `CN(Cc1nc(N)c2ccccc2n1)CC1CCCN1c1cccnn1` (stereo not drawn) it was -16.6%. On to `CC1CN(Cc2ccccc2)CCCN1CCS(C)(=O)=O` (stereo not drawn), for which the cytotoxicity at 70.5 h is -2.05%. For the compound `Cc1nc(C2CCCN2Cc2nnc(Cc3ccccc3)o2)no1` (stereo not drawn), the cytotoxicity at 70.5 h came to 2.42%.

As to `CN(Cc1noc(C(C)(C)C)n1)CC1CCN(CCO)CC1`, the cytotoxicity at 70.5 h was -3.04%.

`COCCN1CCO[C@@H]2CN(Cc3cc(OC)cc(OC)c3)C[C@@H]2C1`: the cytotoxicity at 70.5 h came out at 36.9%. With `CN1CCN(c2ccccc2CNC(=O)Cc2cccc(F)c2)CC1`, the cytotoxicity at 70.5 h is 9.04%. Consider `CN(Cc1noc(C2CC2)n1)C1CCN(Cc2nc(C3CC3)no2)C1` (stereo not drawn), for which the cytotoxicity at 70.5 h is 0.524%. To `Cc1cc(C)n(CC2CCCN2C(=O)Cc2cn3ccccc3n2)n1` (stereo not drawn) belongs -3.71%; to `c1ccc(Cn2cc(CNCC3CCCN3c3cccnn3)cn2)cc1` (stereo not drawn), 3.57%; to `COCCN1CCC(CN(C)c2nc3c(s2)c(C)nn3C)C1` (stereo not drawn), -3.25%.

On to `O=C(c1ccc(=O)[nH]n1)N1CCNCC1c1ccccc1` (stereo not drawn), for which the cytotoxicity at 70.5 h was -2.98%. Take `COCCN1C[C@@H](C)[C@@]2(COCCN(C(=O)c3cnc(C)cn3)C2)C1`: the cytotoxicity at 70.5 h is -5.26%. As to `Cc1nc(CN2CCCC(N(C)CC3CCCC3)C2)no1` (stereo not drawn), the cytotoxicity at 70.5 h turned out to be 0.0887%. Regarding `Cc1ccccc1CNC(=O)Cn1nc(-c2ccc(F)cc2)oc1=O`, the cytotoxicity at 70.5 h is -9.26%. As to `CCc1ccc(CNC(=O)NC2CCCc3c2cnn3CCO)s1` (stereo not drawn), the cytotoxicity at 70.5 h was -2.75%. Turning to `Cc1ccc(-c2nnc(CN3CCc4cnc(C)nc4C3)o2)cc1`, the cytotoxicity at 70.5 h was 3.5%.

Turning to `CNS(=O)(=O)c1ccc(C(=O)N2CCCC2Cc2ccccc2)o1` (stereo not drawn), the cytotoxicity at 70.5 h turned out to be 1.08%. In the case of `CNc1cc(CCNS(=O)(=O)c2ccccc2)nc(-c2ccccn2)n1` it was -14.6%. Consider `COCCNC(=O)[C@H]1CN(c2ncccn2)C[C@H]2OCC[C@@H]12`, for which the cytotoxicity at 70.5 h is -15.6%.

Take `Cc1noc(C)c1NC(=O)CCn1cc(Br)ccc1=O`: the cytotoxicity at 70.5 h was -8.23%. Turning to `Cc1cnc(C(=O)N2CCC3(CC2)CC(c2ccncc2)C(=O)N3)cn1` (stereo not drawn), the cytotoxicity at 70.5 h is -5.53%.

Turning to `COc1ccc2c(c1)nc1n2[C@@H](CNC(=O)c2cccnc2)COC1`, the cytotoxicity at 70.5 h came out at 4.29%.
